Results on 2 compounds are retold here after patent US20250073207A1, “PSILOCIN BENZOATE FORMULATION FOR I[…]” (Eleusis Therapeutics US, Inc., priority 2022, published 2025).

Data set [1] can be described thus: Solubility testing of psilocin benzoate salt in potential intravenous vehicles.
Protocol: Solubility of the psilocin benzoate salt was assessed in a range of potential intravenous vehicles. […] Each vehicle was degassed by sonication prior to use.
The pH of each formulation was measured and samples for assay analysis from each formulation were taken following preparation and then again following 6 hours bench top storage at ambient temperature.
Data set [2] is described as follows: Stability in solution of psilocin free base versus benzoate salt. As to conditions: prone to oxidation.

As for `CN(C)CCc1c[nH]c2cccc(O)c12.O=C(O)c1ccccc1` [psilocin benzoate], the “solubility under saturating conditions” value in data set [1] (all of the vehicles on test) was “partially soluble”. For the same compound, the limit of solubility entry in data set [1] (in aqueous solution) was “approximately 4 mg/ml”. Further, the stability in solution entry in data set [2] is on record as “more stable”.
`CN(C)CCc1c[nH]c2cccc(O)c12` [Psilocin]: the stability in solution entry in data set [2] is “highly unstable in solution”.
